From PMC10796410 (Cancer Chemotherapy and Pharmacology, 2023)
“And” between values parts separate entries of the source, which are not always exact repeats. Equal values may be shown once. Read-outs that look alike come from different tables or passages of the source.

Columns and labels:
OAT3 = system: OAT3; set-up: method as in earlier work; settings: in vitro studies; cited from earlier work
OCT1 = system: OCT1; set-up: method as in earlier work; settings: in vitro studies; cited from earlier work
OCT2 = system: OCT2; set-up: method as in earlier work; settings: in vitro studies; cited from earlier work
MATE2K = system: MATE2K; set-up: method as in earlier work; settings: in vitro studies; cited from earlier work
MATE1 = system: MATE1; set-up: method as in earlier work; settings: in vitro studies; cited from earlier work
[1] = Plasma pharmacokinetics of olaparib in rats after a single oral dose, alone or with metformin (UPLC-MS/MS, non-compartmental); assay type: in vivo, Wistar rats; settings: for concentration at 0.083 h / concentration at 0.167 h / concentration at 0.333 h / concentration at 0.5 h / concentration at 0.75 h / concentration at 1 h / concentration at 2 h / concentration at 3 h / concentration at 4 h / concentration at 6 h / concentration at 8 h / concentration at 10 h / concentration at 12 h / concentration at 24 h / AUC(0-inf) / AUC(0-t) / Cmax / Tmax / Vd/F / k el: male, Wistar, rat, plasma; for concentration at 0.083 h / concentration at 0.167 h / concentration at 0.333 h / concentration at 0.5 h / concentration at 0.75 h / concentration at 1 h / concentration at 2 h / concentration at 3 h / concentration at 4 h / concentration at 6 h / concentration at 8 h / concentration at 10 h / concentration at 12 h / concentration at 24 h: oral, group mean, read-out: Cave_ola; for AUC(0-inf) / AUC(0-t) / Cmax / Tmax / Vd/F / k el: po; for AUC(0-inf) / AUC(0-t) / Cmax / Tmax / Vd/F / k el / Cl/F / t0.5: rat plasma, n = 8, mean ± SD
From the text: All applicable international, national, and/or institutional guidelines for the care and use of animals were followed. The animals were given a standard diet and water ad libitum, and the experimental protocol for this study was approved by the Local Ethics Committee (No. 45/2022, of 27 May 2022), Poznań University of Life Sciences, Department of Animal Physiology and Biochemistry, Wołyńska 35, 60–637 Poznań, Poland. Adult male Wistar rats (weight 380–530 g) were used in the study. The animals were maintained under standard breeding conditions with a 12/12 h light–dark cycle (lights on at 06.00, lights off at 18.00) at constant room temperature (23 ± 2 °C), relative humidity of 55 ± 10% and given ad libitum access to food and water. The animals were allowed to acclimatize for a week before the beginning of the experiments. The rats were divided into three groups. […] The solution for oral metformin administration was prepared in saline at a single dose of 100 mg/kg. Drugs were orally administered to rats by gavage between 7:00 a.m. and 8:00 a.m. […] The blood samples were centrifuged at 5000 rpm for 10 min, and the plasma was transferred to new centrifuge tubes and then stored at – 80 °C.
A Cortecs UPLC C18 column (2.1 × 50 mm, 1.6 µm, Waters Corporation, Milford, MA, USA) was used for chromatographic separation. The column temperature and injection volume were set at 40 °C and 1 µl, respectively. The mobile phase comprised acetonitrile (eluent A) and 2 mM ammonium acetate in water (eluent B) with 0.1% 98–100% formic acid. The flow rate was maintained at 0.3 ml/min. The gradient elution was as follows: 0–3 min, 5% A; […]; 3–5 min, linear from 5 to 95% A; 5–6 min, linear from 95 to 5% A. The mass spectrometer operated in the multiple reaction monitoring mode.
The maximum plasma concentration (Cmax) and the time to reach the Cmax (tmax) were obtained directly from the measured values. All of the above-mentioned parameters underwent statistical analysis.

BCRP = system: BCRP; set-up: method as in earlier work; settings: in vitro studies; cited from earlier work
[2] = system: epithelial ovarian cancer cell lines; settings: drugs given separately or co-administered; cited from earlier work
OATP1B1 = system: OATP1B1; set-up: method as in earlier work; settings: in vitro studies; cited from earlier work
[3] = 100 mg/kg, IIIOLA: olaparib 100 mg/kg b.w. oral single dose alone
[4] = 100 mg/kg, IMET+OLA: metformin 100 mg/kg b.w. + olaparib 100 mg/kg b.w. oral single dose
[5] = IIIOLA: olaparib 100 mg/kg b.w. oral single dose alone
[6] = IMET+OLA: metformin 100 mg/kg b.w. + olaparib 100 mg/kg b.w. oral single dose

concentration at 0.083 h ([1]; 100 mg/kg, t 0.083 h, IIIOLA (olaparib alone)): 1080 ng/mL
concentration at 0.167 h ([1]; 100 mg/kg, t 0.167 h, IIIOLA (olaparib alone)): 2220 ng/mL
concentration at 0.333 h ([1]; 100 mg/kg, t 0.333 h, IIIOLA (olaparib alone)): 3790 ng/mL
concentration at 0.5 h ([1]; 100 mg/kg, t 0.500 h, IIIOLA (olaparib alone)): 4590 ng/mL
concentration at 0.75 h ([1]; 100 mg/kg, t 0.750 h, IIIOLA (olaparib alone)): 4440 ng/mL
concentration at 1 h ([1]; 100 mg/kg, t 1 h, IIIOLA (olaparib alone)): 7110 ng/mL
concentration at 2 h ([1]; 100 mg/kg, t 2 h, IIIOLA (olaparib alone)): 6050 ng/mL
concentration at 3 h ([1]; 100 mg/kg, t 3 h, IIIOLA (olaparib alone)): 4140 ng/mL
concentration at 4 h ([1]; 100 mg/kg, t 4 h, IIIOLA (olaparib alone)): 528 ng/mL
concentration at 6 h ([1]; 100 mg/kg, t 6 h, IIIOLA (olaparib alone)): 1460 ng/mL
concentration at 8 h ([1]; 100 mg/kg, t 8 h, IIIOLA (olaparib alone)): 851 ng/mL
concentration at 10 h ([1]; 100 mg/kg, t 10 h, IIIOLA (olaparib alone)): 480 ng/mL
concentration at 12 h ([1]; 100 mg/kg, t 12 h, IIIOLA (olaparib alone)): 196 ng/mL
concentration at 24 h ([1]; 100 mg/kg, t 24 h, IIIOLA (olaparib alone)): 27.2 ng/mL
concentration at 0.083 h ([1]; t 0.083 h, IMET+OLA (metformin and olaparib)): 1530 ng/mL
concentration at 0.167 h ([1]; t 0.167 h, IMET+OLA (metformin and olaparib)): 4270 ng/mL
concentration at 0.333 h ([1]; t 0.333 h, IMET+OLA (metformin and olaparib)): 7190 ng/mL
concentration at 0.5 h ([1]; t 0.500 h, IMET+OLA (metformin and olaparib)): 7240 ng/mL
concentration at 0.75 h ([1]; t 0.750 h, IMET+OLA (metformin and olaparib)): 7770 ng/mL
concentration at 1 h ([1]; t 1 h, IMET+OLA (metformin and olaparib)): 7120 ng/mL
concentration at 2 h ([1]; t 2 h, IMET+OLA (metformin and olaparib)): 6220 ng/mL
concentration at 3 h ([1]; t 3 h, IMET+OLA (metformin and olaparib)): 4080 ng/mL
concentration at 4 h ([1]; t 4 h, IMET+OLA (metformin and olaparib)): 3200 ng/mL
concentration at 6 h ([1]; t 6 h, IMET+OLA (metformin and olaparib)): 1190 ng/mL
concentration at 8 h ([1]; t 8 h, IMET+OLA (metformin and olaparib)): 490 ng/mL
concentration at 10 h ([1]; t 10 h, IMET+OLA (metformin and olaparib)): 155 ng/mL
concentration at 12 h ([1]; t 12 h, IMET+OLA (metformin and olaparib)): 94.4 ng/mL
concentration at 24 h ([1]; t 24 h, IMET+OLA (metformin and olaparib)): 74.8 ng/mL
AUC(0-inf) [1, 3]: 28600 ng·h/mL
AUC(0-t) [1, 3]: 28300 ng·h/mL
Cmax [1, 3]: 8720 ± 6800 ng/mL
Tmax [1, 3]: 1.18 ± 0.91 h
Vd/F [1, 3]: 22.5 ± 24.8 L
k el [1, 3]: 0.000122 s⁻¹
AUC(0-inf) [1, 4]: 29000 ng·h/mL
AUC(0-t) [1, 4]: 28300 ng·h/mL
Cmax [1, 4]: 9420 ± 6330 ng/mL
Tmax [1, 4]: 1.11 ± 0.75 h
Vd/F [1, 4]: 12.5 ± 11.6 L
k el [1, 4]: 9.44e-05 s⁻¹
t0.5 [1, 5]: 4.79 ± 6.06 (126.5) h
t0.5 [1, 6]: 3.18 ± 2.28 (71.7) h
C_ola ([1]; t 0.750 h, IMET+OLA (metformin and olaparib), individual rats 9-16): 3217.4 ng/mL
C_ola ([1]; t 24 h, IIIOLA (olaparib alone), individual rats 1-8): 34.8 ng/mL and 36.4 ng/mL and 10.4 ng/mL
Structure (SMILES): O=C(c1cc(Cc2n[nH]c(=O)c3ccccc23)ccc1F)N1CCN(C(=O)C2CC2)CC1 [olaparib, Olaparib]
inhibition of OAT3 (OAT3): inhibits
inhibition of OCT1 (OCT1): inhibits
inhibition of OCT2 (OCT2): inhibits
inhibition of MATE2K (MATE2K): inhibits
inhibition of MATE1 (MATE1): inhibits
Cl/F [1, 5]: 7.84 ± 15.21 l/h and 7.84 ± 15.21 (193.9) l/h
Cl/F [1, 6]: 2.62 ± 2.07 l/h and 2.62 ± 2.07 (79.0) l/h
C_ola ([1]; t 0.083 h, IMET+OLA (metformin and olaparib), individual rats 9-16): 399.8 ng/mL and 205.5 ng/mL and 1282.8 ng/mL and 2905.9 ng/mL and 1816.4 ng/mL and 1671.7 ng/mL and 346.2 ng/mL and 3579.7 ng/mL
C_ola ([1]; t 0.167 h, IMET+OLA (metformin and olaparib), individual rats 9-16): 735.8 ng/mL and 409.9 ng/mL and 5081.5 ng/mL and 9225.7 ng/mL and 5056.5 ng/mL and 3857.8 ng/mL and 1362.6 ng/mL and 8409.9 ng/mL
C_ola ([1]; t 0.333 h, IMET+OLA (metformin and olaparib), individual rats 9-16): 1895.1 ng/mL and 1378.1 ng/mL and 6639.2 ng/mL and 14659.7 ng/mL and 8931.6 ng/mL and 11236.6 ng/mL and 1385.6 ng/mL and 11426.1 ng/mL
C_ola ([1]; t 0.500 h, IIIOLA (olaparib alone), individual rats 1-8): 3742.4 ng/mL and 535.2 ng/mL and 12507.8 ng/mL and 7237.7 ng/mL and 6302.7 ng/mL and 1652.9 ng/mL and 418.2 ng/mL and 8077.9 ng/mL
C_ola ([1]; t 0.500 h, IMET+OLA (metformin and olaparib), individual rats 9-16): 3714.2 ng/mL and 1709.6 ng/mL and 7002.5 ng/mL and 13973.1 ng/mL and 6376.6 ng/mL and 773.6 ng/mL and 17095.7 ng/mL
C_ola ([1]; t 0.750 h, IIIOLA (olaparib alone), individual rats 1-8): 3804.2 ng/mL and 2586.8 ng/mL and 15300.4 ng/mL and 11009.1 ng/mL and 7991.7 ng/mL and 1511.2 ng/mL and 355.6 ng/mL and 8277 ng/mL
C_ola ([1]; t 1 h, IIIOLA (olaparib alone), individual rats 1-8): 6130.9 ng/mL and 3469.6 ng/mL and 13706 ng/mL and 16348.7 ng/mL and 9042.2 ng/mL and 1418.9 ng/mL and 698.2 ng/mL and 6102.6 ng/mL
C_ola ([1]; t 2 h, IIIOLA (olaparib alone), individual rats 1-8): 8834.3 ng/mL and 2628.7 ng/mL and 19817.4 ng/mL and 10845 ng/mL and 3432.4 ng/mL and 1456.7 ng/mL and 45.1 ng/mL and 1370.2 ng/mL
C_ola ([1]; t 3 h, IIIOLA (olaparib alone), individual rats 1-8): 10275 ng/mL and 2662.1 ng/mL and 12843.4 ng/mL and 4820.1 ng/mL and 969 ng/mL and 1168.9 ng/mL and 6.7 ng/mL and 409.4 ng/mL
C_ola ([1]; t 4 h, IIIOLA (olaparib alone), individual rats 1-8): 437.9 ng/mL and 948.8 ng/mL and 197 ng/mL
C_ola ([1]; t 6 h, IIIOLA (olaparib alone), individual rats 1-8): 5403.6 ng/mL and 829.1 ng/mL and 4359.8 ng/mL and 822.4 ng/mL and 31.7 ng/mL and 206.3 ng/mL and 4.8 ng/mL and 35.7 ng/mL
C_ola ([1]; t 8 h, IIIOLA (olaparib alone), individual rats 1-8): 2408.4 ng/mL and 295.6 ng/mL and 2024.1 ng/mL and 243.9 ng/mL and 17.4 ng/mL and 116.3 ng/mL
C_ola ([1]; t 10 h, IIIOLA (olaparib alone), individual rats 1-8): 701.7 ng/mL and 75.4 ng/mL and 1071 ng/mL and 70.2 ng/mL
C_ola ([1]; t 12 h, IIIOLA (olaparib alone), individual rats 1-8): 362.3 ng/mL and 53.7 ng/mL and 337 ng/mL and 32.3 ng/mL
inhibition of BCRP (BCRP): inhibits
percentage of late apoptotic cells [2]: 5.1%
inhibition of OATP1B1 (OATP1B1): inhibits
